Experimental data from patent US20060057696A1, “Sugar chain synthases” (priority 2002, published 2006).

Legend:
Type in all cases: biochemical
[1] = molecular target: T1, PA-mST8Sia VI (mouse ST8Sia VI) (Mus musculus, UniProt Q8K4T1); assay: Sialyltransferase activity of PA-mST8Sia VI toward acceptor substrates; details: for Relative rate (%) Mouse ST8SiaVI: incorporation with Fetuin taken as 100, substrate 0.5 mg/ml glycolipids, 1 mg/ml glycoproteins, monosaccharides and oligosaccharides
T1 construct: amino acids 26-398 in the case of mouse ST8Sia VI; signal peptide of mouse immunoglobulin IgM (N); made in house; host or cells: COS-7 cells, transient expression of pcDSA-mST8Sia VI; protein recovered from medium on IgG-Sepharose
T1 sequence (Q8K4T1 26-398): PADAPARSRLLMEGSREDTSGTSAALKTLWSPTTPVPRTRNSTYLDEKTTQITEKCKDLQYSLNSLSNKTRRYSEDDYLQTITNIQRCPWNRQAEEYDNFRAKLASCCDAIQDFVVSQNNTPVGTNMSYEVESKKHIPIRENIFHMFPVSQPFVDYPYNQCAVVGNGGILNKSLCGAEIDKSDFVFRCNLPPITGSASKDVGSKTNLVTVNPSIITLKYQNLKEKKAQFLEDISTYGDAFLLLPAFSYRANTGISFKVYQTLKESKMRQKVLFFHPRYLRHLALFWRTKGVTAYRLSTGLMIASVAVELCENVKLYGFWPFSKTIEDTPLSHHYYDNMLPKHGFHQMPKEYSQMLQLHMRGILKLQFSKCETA
Protocol: Using each expression vector and lipofectamine (Invitrogen), transient expression was carried out in COS-7 cells (Kojima, N. et al. (1995) FEBS Lett. 360, 1-4). The proteins of the present invention secreted from the cells into which each expression vector had been introduced were named as PA-mST8Sia VI (mouse) and PA-hST8Sia VI (human). PA-mST8Sia VI and PA-hST8Sia VI were adsorbed to IgG-Sepharose (Amersham Pharmacia Biotech), and were then recovered from medium. Sialyltransferase activity was measured as follows according to the method of Lee et al. (Lee, Y.-C. et al. (1999) J. Biol. Chem. 274, 11958-11967). A reaction solution (10 μl) containing 50 mM MES buffer (pH 6.0), 1 mM MgCl2, 1 mM CaCl2, 0.5% Triton CF-54, 100 μM CMP-[^14C]-NeuAc, a glycoconjugate (which was added at 0.5 mg/ml in the case of glycolipids, and at 1 mg/ml in the case of glycoproteins or oligosaccharides), and a PA-mST8Sia VI or PA-hST8Sia VI suspension, was incubated at 37° C. for 3 to 20 hours. Thereafter, in the case of glycolipids, the reaction product was purified with a C-18 column (Sep-Pak Vac 100 mg; Waters) and the purified product was used as a sample, and in the case of oligosaccharides or glycoproteins, the reaction product was directly used as a sample. Thus, the obtained samples were subjected to analysis. In the case of oligosaccharides or glycolipids, the sample was spotted on a silica gel 60 HPTLC plate (Merck), and was then developed with a developing solvent consisting of ethanol:pyridine:n-butanol:water:acetic acid=100:10:10:30:3 (for oligosaccharides), a developing solvent consisting of 1-propanol:ammonia water:water=6:1:2.5 (for oligosaccharides), or a developing solvent consisting of chloroform:methanol: 0.02% CaCl2=55:45:10 (for glycolipids). In the case of glycoproteins, analysis was carried out by SDS-polyacrylamide gel electrophoresis. The obtained radioactivities were visualized with a BAS2000 radio image analyzer (Fuji Film) and then quantified.

[2] = molecular target: T2, PA-mST6Gal II (mouse ST6Gal II) (Mus musculus, UniProt Q76K27, R48S); assay: Sialyltransferase activity of PA-mST6Gal II toward acceptor substrates; details: PA-mST6Gal II; incorporation with Galβ1,4GlcNAc taken as 100; 0.5 mg/ml glycolipids, 1 mg/ml glycoproteins and oligosaccharides
T2 construct: amino acids 31-524 in the case of mouse ST6Gal II; signal peptide of mouse immunoglobulin IgM (N); made in house; host or cells: COS-7 cells, transient expression of pcDSA-mST6Gal II; protein recovered from medium on IgG-Sepharose
T2 sequence (Q76K27 31-524 R48S): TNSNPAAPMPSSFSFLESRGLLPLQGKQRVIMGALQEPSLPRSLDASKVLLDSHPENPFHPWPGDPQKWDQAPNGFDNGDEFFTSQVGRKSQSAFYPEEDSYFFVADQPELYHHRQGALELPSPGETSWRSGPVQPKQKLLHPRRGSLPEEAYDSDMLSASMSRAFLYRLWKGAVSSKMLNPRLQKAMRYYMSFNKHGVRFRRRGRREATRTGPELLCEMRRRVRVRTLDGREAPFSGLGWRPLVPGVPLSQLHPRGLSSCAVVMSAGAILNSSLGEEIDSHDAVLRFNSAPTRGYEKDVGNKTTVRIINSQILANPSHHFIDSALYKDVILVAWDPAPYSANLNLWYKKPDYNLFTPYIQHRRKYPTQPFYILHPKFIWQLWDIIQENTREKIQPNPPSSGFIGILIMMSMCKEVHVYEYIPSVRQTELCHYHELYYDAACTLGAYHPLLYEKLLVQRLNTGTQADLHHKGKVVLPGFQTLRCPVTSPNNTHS
Protocol: (§1) Using each expression vector and lipofectamine (Invitrogen), transient expression was carried out in COS-7 cells (Kojima, N. et al. (1995) FEBS Lett. 360, 1-4). The proteins of the present invention secreted from the cells into which each expression vector had been introduced were named as PA-hST6Gal II (human) and PA-mST6Gal II (mouse). PA-hST6Gal II and PA-mST6Gal II were adsorbed to IgG-Sepharose (Amersham Pharmacia Biotech), and were then recovered from medium. Sialyltransferase activity was measured as follows according to the method of Lee et al. (Lee, Y.-C. et al. (1999) J Biol. Chem. 274, 11958-11967). A reaction mixture (10 μl) containing 50 mM MES buffer (pH 6.0), 1 mM MgCl2, 1 mM CaCl2, 0.5% Triton CF-54, 100 μM CMP-[^14C]-NeuAc, a substrate sugar chain (which was added at 0.5 mg/ml in the case of glycolipids, and at 1 mg/ml in the case of glycoproteins or oligosaccharides), and a PA-hST6Gal II or PA-mST6Gal II suspension, was incubated at 37° C. for 3 to 20 hours. Thereafter, in the case of glycolipids, the reaction product was purified with a C-18 column (Sep-Pak Vac 100 mg; Waters) and the purified product was used as a sample. In the case of oligosaccharides or glycoproteins, the reaction product was directly used as a sample. Thus, the obtained sample was subjected to analysis. In the case of oligosaccharides or glycolipids, the sample was spotted on a silica gel 60 HPTLC plate (Merck), and it was then developed with a developing solvent consisting of 1-propanol:ammonia water:water=6:1:2.5 (for oligosaccharides), or a developing solvent consisting of chloroform:methanol: 0.02% CaCl2=55:45:10 (for glycolipids). In the case of glycoproteins, analysis was carried out by SDS-polyacrylamide gel electrophoresis. The obtained radioactivities were visualized with a BAS2000 radio image analyzer (Fuji Film) and then quantified.

[3] = molecular target: T3, PA-hST6Gal II (human ST6Gal II) (Homo sapiens, UniProt Q96JF0); assay: Sialyltransferase activity of PA-hST6Gal II toward acceptor substrates; details: PA-hST6Gal II; incorporation with Galβ1,4GlcNAc taken as 100; 0.5 mg/ml glycolipids, 1 mg/ml glycoproteins and oligosaccharides
T3 construct: amino acids 33-529 in the case of human ST6Gal II; signal peptide of mouse immunoglobulin IgM (N); made in house; host or cells: COS-7 cells, transient expression of pcDSA-hST6Gal II; protein recovered from medium on IgG-Sepharose
T3 sequence (Q96JF0 33-529): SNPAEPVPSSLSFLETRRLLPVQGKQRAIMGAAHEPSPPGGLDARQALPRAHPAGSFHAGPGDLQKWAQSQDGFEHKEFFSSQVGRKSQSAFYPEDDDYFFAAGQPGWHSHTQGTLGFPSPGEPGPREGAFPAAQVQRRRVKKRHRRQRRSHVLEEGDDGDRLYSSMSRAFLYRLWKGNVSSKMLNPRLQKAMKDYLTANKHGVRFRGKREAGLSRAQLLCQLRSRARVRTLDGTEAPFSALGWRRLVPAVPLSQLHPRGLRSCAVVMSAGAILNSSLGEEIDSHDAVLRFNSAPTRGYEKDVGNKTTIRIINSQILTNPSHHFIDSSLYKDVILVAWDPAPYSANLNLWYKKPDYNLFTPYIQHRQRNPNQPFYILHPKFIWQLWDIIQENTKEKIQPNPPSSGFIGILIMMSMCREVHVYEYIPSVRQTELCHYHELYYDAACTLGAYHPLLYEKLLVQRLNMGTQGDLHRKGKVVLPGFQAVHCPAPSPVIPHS
Protocol: as §1

human ST6Gal I = molecular target: T4, human ST6Gal I (Homo sapiens, UniProt P15907); assay: Sialyltransferase activity of human ST6Gal I toward acceptor substrates (comparison); details: incorporation with Galβ1,4GlcNAc taken as 100; 0.5 mg/ml glycolipids, 1 mg/ml glycoproteins and oligosaccharides
T4 sequence (P15907 1-406): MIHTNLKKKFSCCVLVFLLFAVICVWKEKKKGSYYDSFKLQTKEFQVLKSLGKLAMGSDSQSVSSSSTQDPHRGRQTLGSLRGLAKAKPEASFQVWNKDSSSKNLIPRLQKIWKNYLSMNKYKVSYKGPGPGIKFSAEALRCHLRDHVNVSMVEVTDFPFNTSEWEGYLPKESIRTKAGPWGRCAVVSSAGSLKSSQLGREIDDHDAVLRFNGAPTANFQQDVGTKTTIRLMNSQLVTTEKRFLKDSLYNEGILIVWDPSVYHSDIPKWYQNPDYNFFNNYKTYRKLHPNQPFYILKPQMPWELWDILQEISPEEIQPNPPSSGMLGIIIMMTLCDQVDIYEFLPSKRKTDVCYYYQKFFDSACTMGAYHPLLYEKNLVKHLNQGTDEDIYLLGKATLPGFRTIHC
Protocol: as §1
In contrast, there were no glycolipids, which could be substrates of both the enzymes, as far as the inventors have examined. The activity of human ST6Gal I on oligosaccharides was also examined for comparison. […] (FIG. 10).

Row | Compound | Relative rate (%) Mouse ST8SiaVI [1] [%] | activity of PA-mST8Sia VI on the substrate (in words) [1] | further results
1 | CC(=O)N[C@@H]1[C@@H](O)[C@H](O[C@@H]2O[C@H](CO[C@]3(C(=O)O)C[C@H](O)[C@@H](NC(C)=O)[C@H]([C@H](O)[C@H](O)CO)O3)[C@H](O)[C@H](O)[C@H]2O)[C@@H](CO)O[C@H]1O [6′-Sialyl-N-acetyllactosamine, NeuAcα2,6Galβ1,4GlcNAc] | 88.7 | – | –
2 | CC(=O)N[C@H]1[C@H]([C@H](O)[C@H](O)CO)OC(O)(C(=O)O)C[C@@H]1O (stereo partly drawn) [N-Acetylneuraminic acid] | 0 | – | –
3 | Galβ1,3GalNAcβ1,4(NeuAcα2,8NeuAcα2,3)Galβ1,4Glcβ1-Cer [GD1b] | 0 | – | –
4 | Galβ1,3GlcNAc [Type I] | – | – | Relative rate (%) Mouse ST6Gal II [2]: 0%; Relative rate (%) Human ST6Gal II [3]: 0%; Relative rate (%) Human ST6Gal I (human ST6Gal I): 4.2%
5 | NeuAcα2,3Galβ1,3GalNAcβ1,4Galβ1,4Glcβ1-Cer [GM1b] | 1.0 | showed activity | –
6 | CC(=O)N[C@H]1[C@H]([C@H](O)[C@H](O)CO)O[C@@](O[C@H]2[C@@H](O)[C@@H](CO)OC(O)[C@@H]2O)(C(=O)O)C[C@@H]1O (stereo partly drawn) [3′-Sialylgalactose, NeuAcα2,3Gal] | 13.9 | – | –
7 | NeuAcα2,3Galβ1,4GlcNAcβ1,3Galβ1,4Glcβ1-Cer [2,3-SPG] | 3.5 | showed activity | –
8 | CC(=O)N[C@H]1[C@H]([C@H](O)[C@H](O)CO)O[C@@](OC[C@H]2OC(O)[C@H](O)[C@@H](O)[C@H]2O)(C(=O)O)C[C@@H]1O (stereo partly drawn) [6′-Sialylgalactose, NeuAcα2,6Gal] | 2.0 | – | –
9 | CC(=O)NC1C(O)OC(CO)C(OC2OC(CO)C(O)C(OC3(C(=O)O)CC(O)C(NC(C)=O)C(C(O)C(O)CO)O3)C2O)C1O (stereo not drawn) [3′-Sialyl-N-acetyllactosamine, NeuAcα2,3Galβ1,4GlcNAc] | 411 | – | –
10 | O=C[C@H](O)[C@@H](O)[C@@H](O)[C@H](O)CO [Galactose] | 0 | – | –
11 | CC(=O)N[C@H]1C(O)O[C@H](CO)[C@H](O)[C@@H]1O (stereo partly drawn) [N-Acetylgalactosamine] | 0 | – | –
12 | NeuAcα2,3Galβ1-Cer [GM4] | 1.0 | showed activity | –
13 | NeuAcα2,6Galβ1,4GlcNAcβ1,3Galβ1,4Glcβ1-Cer [2,6-SPG] | 0.98 | showed activity | –
14 | NeuAcα2,6Galβ1,3GalNAcβ1,4Galβ1,4Glcβ1-Cer [GSC-68] | 2.6 | showed activity | –
